Consider three compounds from patent US20060160095A1, “Survivin” (EiRx Therapeutics Limited, priority 2002, published 2006).

Data set [1] deals with Primary human neutrophils. Briefly: MTT survival assay of neutrophils cultured with GM-CSF, with or without gliotoxin. Format: cell-based. As to the method:
Primary human neutrophils are isolated and purified from peripheral blood of normal healthy individuals. Neutrophils are resuspended in serum containing culture medium together with various amounts of GM-CSF at a density of 2×10^6/ml, with 100 μl plated into a 96 well plate and cultured for 18 h at 37° C. After this time 10 μl of MTT (5 mg/ml) is added to the cultures and incubated for a further 4 h at 37° C. before solubilisation of the purple coloured formazan with acidic isopropanol. Optical densities are read at 570 nm using a plate reader.
Primary human neutrophils are isolated and purified from peripheral blood of normal healthy individuals. Neutrophils are resuspended in serum containing culture medium containing 5 U/ml of GM-CSF at a concentration of 2×10^6/ml. […] After the indicated time, 10 μl of MTT (5 mg/ml) are added to the cultures and incubated for a further 4 h at 37° C. before solubilisation of the purple coloured formazan with acidic isopropanol. Optical densities are read at 570 nm using a plate reader.

The subject of a further data set is Survivin mRNA. Briefly: LifeGrid microarray of Survivin transcripts in neutrophils. Format: cell-based, human. The note with it: gliotoxin added in the presence of GM-CSF. The method, then:
Primary human neutrophils are isolated and purified from peripheral blood of normal healthy individuals using standard techniques. Neutrophils are resuspended in serum containing culture medium together with GM-CSF (50 U) at a concentration of 2×10^6/ml, and cultured for 0 h (control), 2 h, 4 h and 6 h at 37° C. Total RNA is then prepared from both groups using acid phenol/guanidine isothiocyanate extraction (RNAzol B; Biogenesis), or RNeasy RNA preparation kits (Qiagen). Any contaminating genomic DNA is removed by DNase treatment (DNase I, Gibco-BRL). […]
This example describes the use of a STORM Phosphoimager to quantitatively image positive signals across the filter arrays. […]
The captured image file is then analysed using software such as Array Vision (Imaging Research Inc.; See FIG. 5). […] This program contains facilities for spot detection and quantification, and background detection and quantification. […] As the data is imported to the database, a Normalisation factor is calculated and the sDENs values modified accordingly. […] A normalization factor may be derived from Linear Regression calculated by reference to housekeeping genes. Alternatively, the Global Mean is calculated as the average of the sDens values across all of the arrays to be compared and a normalisation factor is then derived by division of the overall spot density with the Global Mean value. […]

A further data set deals with Neutrophils. As to the kind of experiment: Neutrophil survival with BAL or GM-CSF after antisense/missense oligonucleotides (Example 7). Type of data set: cell-based, human. The note with it: oligonucleotides 0 to 10 μM. As to the method:
Neutrophils are purified as normal and resuspended in culture medium (RPMI+10% FCS) to give a final conc. of 2×10^6/ml. Five hundred microlitres are added to each well of a 24 well plate, to give a final concentration of 1×10^6/well.
Either antisense or missense oligonucleotides are added directly to each well over a range of concentrations between 0 μM to 10 μM.
Cells are then incubated for time intervals between 15 mins to 8 hours. Bronchoalveolar lavage (BAL) fluid, obtained from patients with chronic inflammation, including cystic fibrosis, chronic obstructive pulmonary disease or healthy controls, is then added to each well. As a positive control for increased survival, neutrophils are treated with GM-CSF (0 to 20 units).
Neutrophil apoptosis is measured as described in Example 1.

The subject of another data set is HL60 cells. As to the kind of experiment: DNA fragmentation by agarose gel electrophoresis in differentiated HL60 cells. Format: cell-based. The note with it: 10 μM Retinoic acid. The method, then: HL60 cells are seeded at 5×10^6cells in T25 flasks and incubated with 10 μM Retinoic acid for 24, 48, 72, 96, 120 and 144 hrs. Mock treated HL-60 cells were used as a control. Cellular DNA was analysed for fragmentation into oligonucleosomal-size fragments and their multiples by agarose gel electrophoresis. Lanes 1,3,5,7,9,11 contain DNA from HL-60 cells that were differentiated with 10 μM Retinoic Acid over the indicated period whereas samples in lanes 2,4,6,8,10,12,14 are from control HL-60 cells treated for the same time period. Lane 15 is a 1 Kb Plus Ladder Molecular Marker.

`CN1C(=O)[C@]23CC4=CC=C[C@H](O)[C@H]4N2C(=O)[C@@]1(CO)SS3` [gliotoxin, Gliotoxin]: in data set [1] (0.1 μg/ml added with 5 U/ml GM-CSF), the “block of the GM-CSF inhibition of neutrophil apoptosis (MTT)” value is reported as “effectively blocks”. For the same compound, the “neutrophil apoptosis with the compound alone (MTT)” value in data set [1] (added alone to isolated neutrophils, no GM-CSF) is given as “No increased neutrophil apoptosis”. In the data set on Survivin mRNA, the “Increased expression of Survivin following GM-CSF treatment” value is reported as “blocked”.
Regarding “5′-CCCAgCCTTCCAgCTCCTTg-3′ (antisense 5'-CCCAgCCTTCCAgCTCCTTg-3'; as printed in the source, key not given here) [antisense Survivin oligonucleotides]”, the “survival of neutrophils treated with BAL” value in the data set on Neutrophils (BAL derived from patients with chronic inflammation) was “inhibits the survival”. Moreover, the “survival of neutrophils treated with control cytokine GM-CSF” value in the data set on Neutrophils (GM-CSF as control cytokine) is “inhibits the survival”.
In the case of `CC1=C(/C=C/C(C)=C/C=C/C(C)=C/C(=O)O)C(C)(C)CCC1` [retinoic acid, Retinoic acid], the “onset of apoptosis after differentiation” value with HL60 cells is roughly 4 days.
